From patent US7586023B1, “Methods of conferring ppo-inhibiting herbicide resistance to plants by gene manipulation” (Sumitomo Chemical Company, Limited, priority 1996, dated 2009)

Key:
[1] = tested on: Chlamydomonas reinhardtii GB-2951; assay: Herbicide resistance test of GB-2951 grown in TAP liquid media with various concentrations of the compounds; format: cell-based; conditions: compared with wild type strain CC-125
Procedure: Resistance of GB-2951 to several herbicides was tested by growing the strain in TAP liquid media containing various concentration of the compounds, according to the method described by Shibata et al. (Research in Photosynthesis, Vol III, pp. 567-570, Murata ed., c. 1992 by Kluwer Academic Publisher, Dordrecht, Netherlands). […] Moreover, GB-2951 was crossed to wild type strain CC-124 and several sets of tetrads were isolated according to the method as described by Harris (Harris, E. H., The Chlamydomonas Sourcebook, c. 1989 by Academic Press, San Diego, Calif.). All tetrads segregated two herbicide (compound A) sensitive and two herbicide-resistant progeny. In addition, tetrads from a cross of GB-2951 to RS-322, a porphyria herbicide-resistant isolate from a cross of RS-3 and CC-124, yielded no herbicide-sensitive progeny.

[2] = tested on: E. coli strains with a cDNA encoding a herbicide-resistant PPO (resistant transformants); assay: Colony formation of herbicide-resistant E. coli SASX38 transformants on LB+ampicillin agar with compound; format: cell-based; conditions: same concentration of Compound A, compared to medium free of Compound A
Excerpt: (§1) The plasmid vector containing the cDNA encoding a herbicide-sensitive PPO enzyme obtained in Example 2 or 9 is introduced into the mutant SASX38 strain of E. coli in which the endogenous the PPO gene (hemG locus) is deleted and herbicide-sensitive transformants are selected by the method in Example 2. Similarly, a cDNA encoding a herbicide-resistant PPO is obtained according to the method in Example 12, with a base pair alteration at the position of Val13 in SEQ. ID. NO.: 1, SEQ. ID. NO.: 2 and SEQ. ID. NO.: 3 resulting in the substitution of methionine for valine. Said cDNA is re-cloned in the plasmid vector pUC118 (Nishimura et al., J. Biol. Chem. 270: 8076 (1995)), and said plasmid vector is introduced into E. coli SASX38 to obtain herbicide-resistant transformants. Both sensitive and resistant transformants are separately plated on LB+ ampicillin agar medium supplemented with compound A at a given concentration, and incubated for two days. Colony formation is then evaluated to assess the growth of the sensitive and resistant transformants in the presence of the herbicide. […]

[3] = tested on: E. coli strains with the cDNA encoding a herbicide-sensitive PPO (sensitive transformants); assay: Colony formation of herbicide-sensitive E. coli SASX38 transformants on LB+ampicillin agar with compound; format: cell-based; conditions: particular concentration of Compound A, two days, compared to medium lacking Compound A
Excerpt: as §1

[4] = tested on: crop plants transformed with the herbicide-resistant PPO gene; assay: Weed control test, crop phytotoxicity in greenhouse; format: in vivo; conditions: 100 g/ha; either method (soil surface after sowing, 27 days; sprayed onto plants at 18 days, 20 days)
Procedure: (§2) Flats with an area of 33×23 cm^2 and a depth of 11 cm are filled with upland field soil. Seeds of crop plants with herbicide-resistant PPO genes developed according to methods similar to those described in Example 16 are planted along with those of weeds such as Echinochloa crus-galli, Abutilon theophrasti and Ipomoea hederacea, and covered with 1-2 cm soil. Compounds of formulae 20 and 22 (wherein R is an ethyl group) of an amount of equivalent to 100 g/ha are dissolved in 20 volumes of a mixture of surfactant and liquid carrier, such as a mixture of calcium dodecylbenzenesulfonate/polyoxyethylene styrylphenyl ether/xylene/cyclohexanone=1:2:4:8 (v/v), and diluted with water of a volume equivalent to 10 L/ha, then sprayed on surface of the soil immediately after sowing. Test plants are grown in a greenhouse for 27 days after treatment to observe weed control activity and crop phytotoxicity of the test compounds.
Seeds of the aforementioned crop plants with herbicide-resistant PPO genes are planted along with those of weeds such as Echinochloa crus-galli, Abutilon theophrasti and Ipomoea hederacea, covered with soil of 1-2 cm deep, and the plants grown for 18 days in the greenhouse. […]

Ipomoea hederacea = assay: Weed control test in greenhouse; format: in vivo; conditions: 100 g/ha; either method (soil surface after sowing, 27 days; sprayed onto plants at 18 days, 20 days)
Procedure: as §2
(§3) Seeds of the aforementioned crop plants with herbicide-resistant PPO genes are planted along with those of weeds such as Echinochloa crus-galli, Abutilon theophrasti and Ipomoea hederacea, covered with soil of 1-2 cm deep, and the plants grown for 18 days in the greenhouse. Compounds of formulae 20 and 22 (wherein R is an ethyl group) of an amount of equivalent to 100 g/ha are dissolved in 20 volumes of a mixture of surfactant and liquid carrier, such as the mixture of calcium dodecylbenzenesulfonate/polyoxyethylene styrylphenyl ether/xylene/cyclohexanone=1:2:4:8 (v/v), and diluted with water of a volume equivalent to 10 L/ha, then sprayed onto plants from the above. Test plants are grown in a greenhouse for 20 days after treatment for observation of weed control activity and crop phytotoxicity by test compounds.

Echinochloa crus-galli = assay: Weed control test in greenhouse; format: in vivo; conditions: 100 g/ha; either method (soil surface after sowing, 27 days; sprayed onto plants at 18 days, 20 days)
Procedure: as §2, §3

Abutilon theophrasti = assay: Weed control test in greenhouse; format: in vivo; conditions: 100 g/ha; either method (soil surface after sowing, 27 days; sprayed onto plants at 18 days, 20 days)
Procedure: as §2, §3

C#CCOc1cc(N2C(=O)C3=C(CCCC3)C2=O)c(F)cc1Cl [compound A, [N-(4-chloro-2-fluoro-5-propargyloxy)phenyl-]3,4,5,6-tetrahydrophthalimide]
resistance or sensitivity of GB-2951 to the herbicide [1]: showed resistance | growth of resistant transformants [2]: same level of growth | growth of sensitive transformants [3]: strongly suppressed

C[n+]1ccc(-c2cc[n+](C)cc2)cc1 [paraquat]
resistance or sensitivity of GB-2951 to the herbicide [1]: as sensitive

CN(C)C(=O)Nc1ccc(Cl)c(Cl)c1 [diuron]
resistance or sensitivity of GB-2951 to the herbicide [1]: as sensitive

CC(C)OC(=O)c1cc(-n2c(=O)cc(C(F)(F)F)n(C)c2=O)ccc1Cl [formula 20]
crop phytotoxicity [4]: no significant phytotoxicity | weed control activity (growth) (Ipomoea hederacea): inhibited | weed control activity (growth) (Echinochloa crus-galli): inhibited | weed control activity (growth) (Abutilon theophrasti): inhibited

COC(=O)c1cc(Oc2ccc(C(F)(F)F)cc2Cl)ccc1[N+](=O)[O-] [acifluorfen-methyl]
resistance or sensitivity of GB-2951 to the herbicide [1]: showed resistance
